Assay results as given in patent US20230339970A1, “CASEIN KINASE 1 DELTA MODULATORS” (priority 2020, published 2023).

Key:
human CSNK1D = target: T1, human CSNK1D (Homo sapiens, UniProt P48730); test: Whole Cell nBRET CSNK1D Binding Assay; conditions: living CHO cells stably expressing human CSNK1D tagged with nanoluciferase; NanoBret tracer 130 nM; 2 hours at 37 C
T1 construct: expressed in transfected cells

[1] = target: T2, human recombinant GST cleaved CSNK1D (Homo sapiens, UniProt P48730); test: Purified Enzyme Assay (ADP-Glo CSNK1D Kinase Assay); type: biochemical; conditions: 2 nM CSNK1D; peptide substrate 150 μM; ATP 20 μM; 45 minutes at room temperature
T2 construct: GST (cleaved yes); purchased University of Dundee clone DU 19064
Summary of the method: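 Percent activity derived from ADP-Glo quantification of ADP produced. Reactions: compound dose-response with human recombinant GST-cleaved CSNK1D, ATP and substrate peptide PLSRTL-pS-VASLPGL, incubated 45 min at room temperature.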

T1 sequence (P48730 whole entry): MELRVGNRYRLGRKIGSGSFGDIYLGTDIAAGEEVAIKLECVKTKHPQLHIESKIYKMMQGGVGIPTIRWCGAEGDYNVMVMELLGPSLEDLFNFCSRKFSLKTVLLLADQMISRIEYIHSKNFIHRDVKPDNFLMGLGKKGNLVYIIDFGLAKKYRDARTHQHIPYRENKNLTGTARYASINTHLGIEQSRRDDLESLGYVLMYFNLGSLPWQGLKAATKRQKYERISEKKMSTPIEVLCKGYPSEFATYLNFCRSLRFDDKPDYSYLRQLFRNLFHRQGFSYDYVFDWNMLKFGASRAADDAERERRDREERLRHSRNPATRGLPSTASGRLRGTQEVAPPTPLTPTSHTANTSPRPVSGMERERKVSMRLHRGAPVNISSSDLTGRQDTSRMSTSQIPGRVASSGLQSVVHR
T2 sequence (P48730 whole entry): as above

| SMILES | IC50 (human CSNK1D) [nM] | IC50 [1] [nM] |
| --- | --- | --- |
| Fc1ccc(-c2nn3c(c2-c2cc(C(F)F)nc4[nH]ncc24)CCC3)nc1 [Example 222, 6-(Difluoromethyl)-4-[2-(5-fluoro-2-pyridyl)-5,6-dihydro-4H-pyrrolo[1,2-b]pyrazol-3-yl]-1H-pyrazolo[3,4-b]pyridine] | 181 | 11 |
| CCn1ncc2cc(-c3c(-c4ccc(F)cn4)nn4c3CCC4)cnc21 [Example 223, 1-Ethyl-5-(2-(5-fluoropyridin-2-yl)-5,6-dihydro-4H-pyrrolo[1,2-b]pyrazol-3-yl)-1H-pyrazolo[3,4-b]pyridine] | 894 | 22 |
| Cc1nc2[nH]nc(Cl)c2c(-c2c(-c3ccc(F)cn3)nn3c2CCC3)c1F [Example 224, 3-Chloro-5-fluoro-4-(2-(5-fluoropyridin-2-yl)-5,6-dihydro-4H-pyrrolo[1,2-b]pyrazol-3-yl)-6-methyl-1H-pyrazolo[3,4-b]pyridine] | 5 | 4 |
| Cc1nc(-c2c(-c3ccc(F)cc3)nn3c2CCC3)c2cn[nH]c2n1 [Example 225, 4-[2-(4-Fluorophenyl)-5,6-dihydro-4H-pyrrolo[1,2-b]pyrazol-3-yl]-6-methyl-1H-pyrazolo[3,4-d]pyrimidine] | 88 | 8 |
| Fc1ccc(-c2nn3c(c2-c2ccn4nccc4c2)C[C@H](F)C3)cc1 [Example 226, 5-[(5S)-5-Fluoro-2-(4-fluorophenyl)-5,6-dihydro-4H-pyrrolo[1,2-b]pyrazol-3-yl]pyrazolo[1,5-a]pyridine] | 48 | 10 |
| Fc1ccc(-c2nn3c(c2-c2c(F)cnc4[nH]ncc24)C[C@H](F)C3)cc1 [Example 227, 5-Fluoro-4-[(5S)-5-fluoro-2-(4-fluorophenyl)-5,6-dihydro-4H-pyrrolo[1,2-b]pyrazol-3-yl]-1H-pyrazolo[3,4-b]pyridine] | 3 | 1 |
| Fc1ccc(-c2nn3c(c2-c2ccnc4[nH]ncc24)C[C@@H](F)C3)cc1 [Example 228, 4-[(5R)-5-Fluoro-2-(4-fluorophenyl)-5,6-dihydro-4H-pyrrolo[1,2-b]pyrazol-3-yl]-1H-pyrazolo[3,4-b]pyridine] | 79 | 7 |
| CC(=O)Nc1cc(-c2c(-c3ccc(F)cc3)nn3c2C[C@H](F)C3)ccn1 [Example 229, N-[4-[(5S)-5-Fluoro-2-(4-fluorophenyl)-5,6-dihydro-4H-pyrrolo[1,2-b]pyrazol-3-yl]-2-pyridyl]acetamide] | 2 | 1 |
| Fc1ccc(-c2nn3c(c2-c2ccnc4[nH]ncc24)CC(F)(F)C3)cc1 [Example 230, 4-[5,5-Difluoro-2-(4-fluorophenyl)-4,6-dihydropyrrolo[1,2-b]pyrazol-3-yl]-1H-pyrazolo[3,4-b]pyridine] | 74 | 5 |
| CC1(C)Cc2c(-c3ccnc4[nH]ncc34)c(-c3ccc(F)cc3)nn2C1 [Example 231, 4-[2-(4-Fluorophenyl)-5,5-dimethyl-4,6-dihydropyrrolo[1,2-b]pyrazol-3-yl]-1H-pyrazolo[3,4-b]pyridine] | 4 | 1 |
| Cc1cc(-c2c(-c3ccc(F)cc3)nn3c2CC(C)(C)C3)c2cn[nH]c2n1 [Example 232, 4-[2-(4-Fluorophenyl)-5,5-dimethyl-4,6-dihydropyrrolo[1,2-b]pyrazol-3-yl]-6-methyl-1H-pyrazolo[3,4-b]pyridine] | 3 | 1 |
| CC1(C)Cc2c(-c3ccnc4[nH]ccc34)c(-c3ccc(F)cn3)nn2C1 [Example 233, 4-[2-(5-Fluoro-2-pyridyl)-5,5-dimethyl-4,6-dihydropyrrolo[1,2-b]pyrazol-3-yl]-1H-pyrrolo[2,3-b]pyridine] | 7 | 2 |
| CC1(C)Cc2c(-c3ccnc4[nH]ncc34)c(-c3ccc(F)cn3)nn2C1 [Example 234, 4-[2-(5-Fluoro-2-pyridyl)-5,5-dimethyl-4,6-dihydropyrrolo[1,2-b]pyrazol-3-yl]-1H-pyrazolo[3,4-b]pyridine] | 32 | 2 |
| Cc1cc(-c2c(-c3ccc(F)cn3)nn3c2CC(C)(C)C3)c2cc[nH]c2n1 [Example 235, 4-[2-(5-Fluoro-2-pyridyl)-5,5-dimethyl-4,6-dihydropyrrolo[1,2-b]pyrazol-3-yl]-6-methyl-1H-pyrrolo[2,3-b]pyridine] | 8 | 1 |
| CC1(C)Cc2c(-c3c(F)cnc4[nH]ncc34)c(-c3ccc(F)cn3)nn2C1 [Example 236, 5-Fluoro-4-[2-(5-fluoro-2-pyridyl)-5,5-dimethyl-4,6-dihydropyrrolo[1,2-b]pyrazol-3-yl]-1H-pyrazolo[3,4-b]pyridine] | 21 | 3 |
| CC1(C)Cc2c(-c3ccnc4[nH]nc(Cl)c34)c(-c3ccc(F)cn3)nn2C1 [Example 237, 3-Chloro-4-(2-(5-fluoropyridin-2-yl)-5,5-dimethyl-5,6-dihydro-4H-pyrrolo[1,2-b]pyrazol-3-yl)-1H-pyrazolo[3,4-b]pyridine] | 13 | 4 |
| Cc1cc(-c2c(-c3ccc(F)cn3)nn3c2CC(C)(C)C3)c2cn[nH]c2n1 [Example 238, 4-[2-(5-Fluoro-2-pyridyl)-5,5-dimethyl-4,6-dihydropyrrolo[1,2-b]pyrazol-3-yl]-6-methyl-1H-pyrazolo[3,4-b]pyridine] | 23 | 2 |
| CC1(C)Cc2c(-c3cc(C(F)F)nc4[nH]ncc34)c(-c3ccc(F)cn3)nn2C1 [Example 239, 6-(Difluoromethyl)-4-[2-(5-fluoro-2-pyridyl)-5,5-dimethyl-4,6-dihydropyrrolo[1,2-b]pyrazol-3-yl]-1H-pyrazolo[3,4-b]pyridine] | 115 | 4 |
| Cc1nc2[nH]ncc2c(-c2c(-c3ccc(F)cn3)nn3c2CC(C)(C)C3)c1F [Example 240, 5-Fluoro-4-[2-(5-fluoro-2-pyridyl)-5,5-dimethyl-4,6-dihydropyrrolo[1,2-b]pyrazol-3-yl]-6-methyl-1H-pyrazolo[3,4-b]pyridine] | 19 | 2 |
| [2H]C([2H])([2H])C1(C([2H])([2H])[2H])Cc2c(-c3ccnc4[nH]ncc34)c(-c3ccc(F)cc3)nn2C1 [Example 241, 4-[2-(4-Fluorophenyl)-5,5-bis(methyl-d3)-4,6-dihydropyrrolo[1,2-b]pyrazol-3-yl]-1H-pyrazolo[3,4-b]pyridine] | 7 | 2 |
| [2H]C([2H])([2H])C1(C([2H])([2H])[2H])Cc2c(-c3cc(C)nc4[nH]ncc34)c(-c3ccc(F)cc3)nn2C1 [Example 242, 4-[2-(4-Fluorophenyl)-5,5-bis(methyl-d3)-4,6-dihydropyrrolo[1,2-b]pyrazol-3-yl]-6-methyl-1H-pyrazolo[3,4-b]pyridine] | 4 | 2 |
| [2H]C([2H])([2H])C1(C([2H])([2H])[2H])Cc2c(-c3c(F)cnc4[nH]ncc34)c(-c3ccc(F)cn3)nn2C1 [Example 243, 5-Fluoro-4-[2-(5-fluoro-2-pyridyl)-5,5-bis(methyl-d3)-4,6-dihydropyrrolo[1,2-b]pyrazol-3-yl]-1H-pyrazolo[3,4-b]pyridine] | 49 | 3 |
